Read-outs that look alike come from different tables or passages of the source.
How the values were obtained:
[1] = test system: T47D human breast cancer cells; assay: Alkaline phosphatase assay in human breast cancer cell line T47D; type: cell-based
Method: Alkaline Phosphatase Assay in Human Breast Cancer Cell Line T47D
T47D human breast cancer cells were grown in RPMI medium without phenol red (Invitrogen) containing 10% (v/v) heat-inactivated fetal bovine serum (FBS; Hyclone), 1% (v/v) penicillin-streptomycin (Invitrogen), 1% (w/v) glutamine (Invitrogen), and […] insulin (Sigma). Incubation conditions were 37° C. in a humidified 5% (v/v) carbon dioxide environment.
The cells were plated in 96-well tissue culture plates at 10,000 cells per well in assay medium [RPMI medium without phenol red (Invitrogen) containing 5% (v/v) charcoal-treated FBS (Hyclone) and 1% (v/v) penicillin-streptomycin (Invitrogen)]. Two days later, the medium was decanted and test compound or control were added at a final concentration of 0.1% (v/v) dimethyl sulfoxide in fresh assay medium. Twenty-four hours later, an alkaline phosphatase assay was performed using a SEAP kit (BD Biosciences Clontech, Palo Alto, Calif.). Briefly, the medium was decanted and the cells were fixed for 30 minutes at room temperature with 5% (v/v) formalin (Sigma). The cells were washed once with room temperature Hank's buffered saline solution (Invitrogen). Equal volumes (0.05 mL) of 1× Dilution Buffer, Assay Buffer and 1:20 substrate/enhancer mixture were then added. After 1 hour incubation at room temperature in the dark, the lysate was transferred to a white 96-well plate (Dynex) and luminescence was read using a LuminoSkan Ascent (Thermo Electron, Woburn, Mass.).

[2] = test system: A549 Human lung carcinoma cells; assay: Transient transfection and Steady Glo luciferase assay in A549 cells with dexamethasone challenge; type: cell-based
Method: Transient Transfection and Steady Glo Luciferase Assay
A549 Human lung carcinoma cells were grown in F-12K Nutrient Mixture containing 10% (v/v) fetal bovine serum (FBS; Invitrogen), 2 mM glutamine and 0.15% […] (Invitrogen)
A549 cells were split 1 to 3 in 175 cm tissue culture flask. The cells were incubated at 37° C. in CO2 incubator until the cells were 95% confluent (typically 24-30 hours).
The following solutions were prepared in sterile tubes: (a) Solution A: 1.5 μg/ml of DNA in 8.5 ml OPTI-MEM I Reduced Serum Medium. (GIBCO cat# 31985) and (b) Solution B: 6 μl/ml of DMRIE-C Reagent into […] OPTI-MEM I. The two solutions were combined and mixed gently, then incubated at room temperature for 40 minutes.
The A549 cells prepared above were washed with […] of OPTI-MEM I. The medium was removed and 17 ml of the lipid-DNA complex solution was overlayed onto cells. The cells ere then incubated for 16 h at 37° C. in CO2 incubator. The DNA-containing medium was removed and 30 ml of growth medium was added. (5% Charcoal treated FBS) After 5-6 h, the cells were seeded in a 96 well plate and the cells incubated overnight at 37° C. in CO2 incubator.
To each well was then added 5 μl of test compounds and the cells incubated at 37° C. for 10 min. 5 μL of dexamathasone (CAS [50-02-2]), a glucocorticoid agonist, solution was then added to each well for challenger and the cells incubated at 37° C. in CO2 incubator for 24 h. 100 μl of Luc-assay buffer was then added into each cell well and the cells incubated for 30 min at room temperature. A 150 μL sample from each well was then transferred into a DYNEX Microlitel plate and read on Top-counter.

[3] = T47D, 24 h, read-out: T47D IC50 (nM)
[4] = A549, 24 h, read-out: A549 IC50 (nM)
[5] = T47D cells, alkaline phosphatase readout, 24 h with test compound, read-out: T47D IC50
[6] = transfected A549 cells, luciferase readout, challenged with dexamethasone (glucocorticoid agonist), 24 h, read-out: A549 IC50

**Q.** What does the source list for C=C(C)[C@]1(O)CC[C@H]2[C@@H]3CCC4=CC(=O)CCC4=C3[C@@H](c3ccc(P(=O)(OCC)OCC)cc3)C[C@@]21C [Compound 11]?
**A.** IC50 [1, 3]: 51.3 nM; IC50 [2, 4]: 66.3 nM

**Q.** Which IC50 [1, 5] does the source give for C/C=C/C[C@]1(O)CC[C@H]2[C@@H]3CCC4=CC(=O)CCC4=C3[C@@H](c3ccc(P(=O)(c4ccccc4)c4ccccc4)cc3)C[C@@]21C [Compound 28] here?
**A.** Its IC50 is 660 nM.

**Q.** And the IC50 [2, 6]?
**A.** The IC50 was 129 nM.

**Q.** Which results are given for C=C1CCO[C@]12CC[C@H]1[C@@H]3CCC4=CC(=O)CCC4=C3[C@@H](c3ccc(P(=O)(c4ccccc4)c4ccccc4)cc3)C[C@@]12C [Compound 36, 19,24-Dinorchola-4,9,20-trien-3-one, 17,23-epoxy-11-[4-(diphenyl-phosphinoyl)-phenyl]-, (11β,17α)-(9Cl)]?
**A.** IC50 [1, 5]: 45 nM; IC50 [2, 6]: 163 nM

**Q.** Which results are given for CCOP(=O)(OCC)c1ccc([C@H]2C[C@@]3(C)[C@@H](CC[C@@]3(O)C(F)(F)C(F)(F)F)[C@@H]3CCC4=CC(=O)CCC4=C32)cc1 [Compound 8]?
**A.** IC50 [1, 3]: 170 nM; IC50 [2, 4]: 168 nM

**Q.** What does the source list for C[C@]12C[C@H](c3ccc(P(=O)(Oc4ccccc4)Oc4ccccc4)cc3)C3=C4CCC(=O)C=C4CC[C@H]3[C@@H]1CCC2=O [Compound 33]?
**A.** IC50 [1, 5]: > 1000 nM; IC50 [2, 6]: 217 nM

From patent US7671045B2, “17-phosphorous steroid derivatives useful as progesterone receptor modulators” (Janssen Pharmaceutica N.V., priority 2006, dated 2010)
